Columns and labels:
Swiss albino mice [1] = experiment: Energy and endurance forced swim test (FST) with constant load; type: in vivo; details: for Activity during forced swimming compared to control group (in words): 10 minutes of forced swimming, day 21; for Average Velocity / Distance Travelled (mm) / Fast Swimming Time / Resting Time / Slow Swimming: oral, 21 days, 150 mg/kg (Caffeine 10 mg/kg), 10 min swim on day 21, Mean ± SEM
Description: The efficacy of the compositions LI12522F2, LI89032F3 and LI80020F3 for enhancing energy and endurance was further evaluated in an animal study. […] On day 21, one hour after the treatment the mice were forced to swim with a constant load (10% of its body weight attached to its tail) in an acrylic cylinder filled with water. This test was monitored for 10 minutes using the SMART video tracking system ([…]). Various swimming parameters were recorded and analyzed by smart software. […] Swiss albino mice were acclimatized for 5 days before initiation of the study. Healthy Swiss albino mice were selected and randomly divided (n=6) into different treatment groups. […] On day 21, one hour after the treatment the mice were forced to swim with a constant load (10% of its body weight attached to its tail) in an acrylic cylinder filled with water. This test was monitored for 10 minutes using the SMART video tracking system ([…]). Various swimming parameters were recorded and analyzed by smart software. Measured Swimming parameters include, resting time, slow moving time, fast moving time, total moving time, path length of swimming and average velocity.

Swiss albino mice [2] = experiment: Grip strength measurement (grip strength meter); type: in vivo; details: oral, 150 mg/kg (Caffeine 10 mg/kg), Mean ± SEM
Description: Similarly, after 21 days of treatment, the grip strength of mice was measured by using Grip strength meter (UgoBasile, Italy). Animals were trained and habituated to the experimental environment and conditions for 5 days. Each mice was allowed to grasp the grasping bar and it was pulled back gently in a horizontal plane by tail with gradually increasing force till the pulling force overcomes the grip strength of the animal. The force applied at the moment when the mice leaves its grasp on the grasping bar was recorded as grip strength in grams.
After 21 days of treatment Grip strength of mice was measured by using Grip strength meter (UgoBasile, Italy). Animals were trained and habituated to the experimental environment and conditions for 5 days. Each mice was allowed to grasp the grasping bar and it was pulled back gently in a horizontal plane by tail with gradually increasing force till the pulling force overcomes the grip strength of the animal. The force applied at the moment when the mice leaves its grasp on the grasping bar was recorded as grip strength in grams. Three trials were conducted on each animal and average grip strength was calculated.

C[N+](C)(C)C[C@H](O)CC(=O)[O-] [L-Carnitine]
Activity during forced swimming compared to control group (in words) (Swiss albino mice [1]): more active and energetic
Average Velocity (Swiss albino mice [1]): 44.24
Distance Travelled (mm) (Swiss albino mice [1]): 26197.58 mm
Fast Swimming Time (Swiss albino mice [1]): 67.64 s
Resting Time (Swiss albino mice [1]): 419.52 s
Slow Swimming (Swiss albino mice [1]): 104.92 s
Average Grip Strength measured after 21 Days (Swiss albino mice [2]): 39.20 ± 7.51 grams

Cn1c(=O)c2c(ncn2C)n(C)c1=O [Caffeine]
Activity during forced swimming compared to control group (in words) (Swiss albino mice [1]): more active and energetic
Average Velocity (Swiss albino mice [1]): 49.80
Distance Travelled (mm) (Swiss albino mice [1]): 28740.25 mm
Fast Swimming Time (Swiss albino mice [1]): 82.16 s
Resting Time (Swiss albino mice [1]): 399.64 s
Slow Swimming (Swiss albino mice [1]): 92.12 s
Average Grip Strength measured after 21 Days (Swiss albino mice [2]): 56.07 ± 10.37 grams
